Test results published in patent publication US6448269B1 (Eli Lilly and Company, priority 1993, dated 2002).
Counter-ions that a name gives are not always drawn.

Tests used:
GPIIb-IIIa = biological target: T1, GPIIb-IIIa (Homo sapiens, UniProt P05106+P08514); assay: ELISA IIb-IIIa assay (fibrinogen binding to immobilized GPIIb-IIIa); settings: purified platelet GPIIb-IIIa receptor coated on ELISA plates; biotin-labeled fibrinogen 10 nM, 3 hours at 25° C.
T1 construct: Purified platelet GPIIb-IIIa receptor was prepared as described by Fitzgerald; from tissue; host or cells: platelets
T1 sequence (P08514 32-887 limits assumed): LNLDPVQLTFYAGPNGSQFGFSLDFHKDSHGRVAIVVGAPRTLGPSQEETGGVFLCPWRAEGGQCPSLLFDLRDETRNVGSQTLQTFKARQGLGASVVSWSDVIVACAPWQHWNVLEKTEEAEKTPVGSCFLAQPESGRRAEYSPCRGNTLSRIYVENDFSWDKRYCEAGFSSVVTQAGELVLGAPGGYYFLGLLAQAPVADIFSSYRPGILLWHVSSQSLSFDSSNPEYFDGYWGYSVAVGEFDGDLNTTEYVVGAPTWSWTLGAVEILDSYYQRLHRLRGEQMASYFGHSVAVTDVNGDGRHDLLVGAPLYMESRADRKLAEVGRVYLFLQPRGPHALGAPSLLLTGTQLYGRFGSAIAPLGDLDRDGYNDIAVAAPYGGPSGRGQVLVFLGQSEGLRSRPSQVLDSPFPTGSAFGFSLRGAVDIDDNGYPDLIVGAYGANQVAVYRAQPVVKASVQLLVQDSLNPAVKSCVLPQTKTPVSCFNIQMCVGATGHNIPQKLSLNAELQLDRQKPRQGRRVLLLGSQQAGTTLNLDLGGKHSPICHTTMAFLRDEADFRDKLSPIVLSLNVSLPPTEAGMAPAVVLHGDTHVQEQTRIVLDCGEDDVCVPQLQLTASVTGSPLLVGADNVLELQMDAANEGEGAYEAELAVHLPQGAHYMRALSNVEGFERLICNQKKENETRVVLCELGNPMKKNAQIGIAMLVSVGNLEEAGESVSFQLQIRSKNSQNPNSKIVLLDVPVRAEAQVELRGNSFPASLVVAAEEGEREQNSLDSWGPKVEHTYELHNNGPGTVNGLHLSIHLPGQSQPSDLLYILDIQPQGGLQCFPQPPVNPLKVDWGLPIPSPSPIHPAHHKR
T1 sequence (P05106 27-788): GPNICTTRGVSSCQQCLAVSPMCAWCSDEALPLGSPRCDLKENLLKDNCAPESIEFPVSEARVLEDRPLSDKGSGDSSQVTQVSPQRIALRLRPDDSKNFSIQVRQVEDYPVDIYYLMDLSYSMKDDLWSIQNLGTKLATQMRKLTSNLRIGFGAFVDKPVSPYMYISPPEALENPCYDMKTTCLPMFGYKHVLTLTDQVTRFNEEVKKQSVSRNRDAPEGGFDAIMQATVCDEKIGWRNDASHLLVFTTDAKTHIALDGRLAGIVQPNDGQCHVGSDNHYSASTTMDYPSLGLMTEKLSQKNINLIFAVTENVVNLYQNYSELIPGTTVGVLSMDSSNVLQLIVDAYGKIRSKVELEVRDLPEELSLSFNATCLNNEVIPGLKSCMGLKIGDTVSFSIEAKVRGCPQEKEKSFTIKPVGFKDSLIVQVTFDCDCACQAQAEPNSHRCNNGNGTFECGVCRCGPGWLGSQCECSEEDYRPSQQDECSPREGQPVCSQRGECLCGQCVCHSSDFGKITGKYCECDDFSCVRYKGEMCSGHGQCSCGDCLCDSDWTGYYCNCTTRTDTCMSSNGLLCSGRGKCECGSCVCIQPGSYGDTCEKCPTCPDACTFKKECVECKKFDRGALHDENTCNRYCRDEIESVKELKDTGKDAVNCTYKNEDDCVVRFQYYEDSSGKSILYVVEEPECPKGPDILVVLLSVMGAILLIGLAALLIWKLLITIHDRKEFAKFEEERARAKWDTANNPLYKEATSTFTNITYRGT
Description: In the following assay, GPIIb-IIIa is prepared in purified form, by a method such as described by Fitzgerald, L. A., et al., Anal Biochem (1985) 151:169-177, (the disclosure of which is incorporated herein by reference). GPIIb-IIIa is coated onto microtiter plates. The coated support is then contacted with fibrinogen and with the test material (e.g., compounds of Formula I) and incubated for a sufficient time to permit maximal binding of fibrinogen to the immobilized GPIIb-IIIa. Fibrinogen is typically provided at a concentration of about 5-50 nM and the test material can, if desired, be added at a series of dilution. Typical incubations are 2 to 4 hours at 25° C., the time and temperature being interdependent.
After incubation, the solution containing the fibrinogen and test material is removed and the level of binding of fibrinogen measured by quantitating bound fibrinogen to GPIIb-IIIa. Any suitable means of detection may be used, but it is convenient to employ labeled fibrinogen, for example using biotinylated labels. Such methods are well known in the art.
Purified platelet GPIIb-IIIa receptor was prepared as described by Fitzgerald, L. A., et al., Anal Biochem (1985) 151:169-177 (1985). Vitronectin receptor was prepared as described by Smith, J. W., J. Biol Chem (1988) 263:18726-18731. After purification, the receptors were stored in 0.1% Triton X-100 at 0.1-1.0 mg/ml.
The receptors were coated to the wells of 96-well flat-bottom ELISA plates (Linbro EIA-Plus microtiter plate, Flow Laboratories) after diluting 1:200 with a solution of 20 mM Tris-HCl, 150 mM NaCl, 1 mM CaCl2, pH 7.4, to reduce the Triton X-100 concentration to below its critical micellar concentration and adding an aliquot of 100 ul to each well. The wells were all allowed to incubate overnight at 4° C., and then aspirated to dryness. Additional sites were blocked by the addition of bovine serum albumin (BSA) at 35 mg/ml in the above buffer for 2 hours at 30° C. to prevent nonspecific binding. The wells were then washed once with binding buffer ([…] Tris-HCl, 100 mM NaCl 2 mM CaCl2, 1 mg/ml BSA).
The corresponding ligands (fibrinogen, von Willebrand Factor, or vitronectin) were conjugated to biotin using commercially available reagents and standard protocols. The labeled ligands were added to the receptor-coated wells at final concentration of 10 nM (100 ul/well) and incubated for 3 hours at 25° C. in the presence or absence of the test samples. After incubation, the wells are aspirated to dryness and bound ligand is quantitated.
The bound protein is detected by the addition of antibiotin antibody conjugated to alkaline phosphatase followed by addition of substrate (p-nitrophenyl phosphate), and determination of the optical density of each well at […]. Decreased color development is observed in wells incubated with test samples which inhibit binding of ligand to receptor.

[1] = test system: human platelet-rich plasma; assay: Platelet aggregation assay (Aggregation-Human PRP/ADP); assay type: cell-based; settings: 1 min; human platelet-rich plasma incubated with compound 1 minute at 37° C.; ADP-induced aggregation; read-out: Agg: Human PRP/ADP IC50uM
Description: Platelet-rich plasma was prepared from healthy human volunteers for use in determining inhibition of platelet aggregation by the compounds.
Platelet-rich plasma was prepared at room temperature by centrifugation of the citrated whole blood at 100×g for 12 minutes. The platelet rich plasma contained approximately 200-400,000 platelets/μl.
Platelet-poor plasma was prepared by centrifugation of citrated whole blood at 12,000×g for 2 minutes.
Platelet aggregation was assayed in a 4-channel platelet aggregation profiler (PAP-4, Biodata, Hatboro, Pa.) according to the manufacturers directions. Inhibition of platelet aggregation was studied by adding varying amounts of […] to stirred human platelet-rich plasma. Specifically, the human platelet-rich plasma was incubated with the compound being tested for 1 minute at 37° C. prior to the addition of a variety of aggregating agents most often ADP 5 μM, but also 1 μg/ml collagen, 1 μM U46619 and 0.3 μM platelet activating factor.

Row | Compound | IC50 (GPIIb-IIIa) | IC50 [1]
1 | N=C(N)c1ccc(COc2ccc3c(c2)CCN(C(CC(=O)O)C(=O)NCc2ccccc2)C3=O)cc1 (racemic) [Example 6, (+−)-6-[[4-(Aminoiminomethyl)phenyl]methoxy]-3,4-dihydro-1-oxo-beta-[[(phenylmethyl)amino]carbonyl]-2(1H)-isoquinoline Propanoic Acid Trifluoroacetate] | 0.05 µM | 0.7 µM
2 | COc1ccc(CCNC(=O)C(CC(=O)O)N2CCc3cc(OCc4ccc(C(=N)N)cc4)ccc3C2=O)cc1 (racemic) [Example 7, (+−)-6-[[4-(Aminoiminomethyl)phenyl]methoxy]-3,4-dihydro-1-oxo-beta-[[(4-methoxyphenyl Ethyl)amino]carbonyl]-2(1H)-isoquinoline Propanoic Acid Trifluoroacetate] | 0.015 µM | 2 µM
3 | CNC(=O)C(CC(=O)O)N1CCc2cc(OCc3ccc(C(=N)N)cc3)ccc2C1=O (racemic) [Example 8, (+−)-6-[[4-(Aminoiminomethyl)phenyl]methoxy]-3,4-dihydro-beta-[(methylamino)carbonyl]-1-oxo-2(1H)-isoquinoline Propanoic Acid Trifluoroacetate] | 0.08 µM | 0.55 µM
4 | N=C(N)c1ccc(COc2ccc3c(c2)CCN(C(CC(=O)O)C(=O)NCCC(=O)O)C3=O)cc1 (racemic) [Example 9, (+−)-6-[[4-(Aminoiminomethyl)phenyl]methoxy]-beta-[[(2-carboxyethyl)amino]carbonyl-3,4-dihydro-1-oxo-2(1H)-isoquinoline Propanoic Acid Trifluoroacetate] | 0.085 µM | 0.85 µM
5 | CCOCCCC(CC(=O)O)N1CCc2cc(OCc3ccc(C(=N)N)cc3)ccc2C1=O (racemic) [Example 10, (+−)-6-[[4-(Aminoiminomethyl)phenyl]methoxy]-b-(3-ethoxypropyl)-3,4-dihydro-1-oxo-2(1H)-isoquinoline Propanoic Acid Trifluoroacetate] | 0.061 µM | 0.47 µM
6 | CCCCC(CC(=O)O)N1CCc2cc(OCc3ccc(C(=N)N)cc3)ccc2C1=O (racemic) [Example 11, (+−)-6-[[4-(Aminoiminomethyl)phenyl]methoxy]-b-butyl-3,4-dihydro-1-oxo-2(1H)-isoquinoline Propanoic Acid Trifluoroacetate] | 0.04 µM | 0.6 µM
7 | CCCCCC(CC(=O)O)N1CCc2cc(OCc3ccc(C(=N)N)cc3)ccc2C1=O (racemic) [Example 12, (+−)-6-[[4-(Aminoiminomethyl)phenyl]methoxyl]-3,4-dihydro-1-oxo-b-pentyl-2(1H)-isoquinolinepropanoic Acid Trifluoroacetate] | 0.024 µM | 0.57 µM
8 | CCC(CC(=O)O)N1CCc2cc(OCc3ccc(C(=N)N)cc3)ccc2C1=O (racemic) [Example 14, (+−)-6-[[4-(Aminoiminomethyl)phenyl]methoxy]b-ethyl-3,4-dihydro-1-oxo-2(1H)-isoquinoline Propanoic Acid Trifluoroacetate] | 0.045 µM | 0.4 µM
9 | CCCC(CC(=O)O)N1CCc2cc(OCc3ccc(C(=N)N)cc3)ccc2C1=O (racemic) [Example 15, (+−)-6-[[4-(Aminoiminomethyl)phenyl]methoxy]-3,4-dihydro-1-oxo-b-propyl-2 (1H)-isoquinoline Propanoic Acid Trifluoroacetate] | 0.5 µM | 0.23 µM
10 | N=C(N)c1ccc(COc2ccc3c(c2)CCN(C(CC(=O)O)c2ccccc2)C3=O)cc1 (racemic) [Example 16, (+−)-6-[[4-(Aminoiminomethyl)phenyl]methoxy]-3,4-dihydro-1-oxo-b-phenyl-(1H)-isoquinoline Propanoic Acid Trifluoroacetate] | 0.007 µM | 0.2 µM
11 | N=C(N)c1ccc(COc2ccc3c(c2)CCC(CC(=O)O)C3)cc1 (racemic) [Example 20, (+−)-6-[[(4-Aminoimidomethyl)phenyl]methoxy]-1,2,3,4-tetrahydronapthylene-2-acetic Acid Trifluoroacetate] | 0.3 µM | 20 µM
12 | N=C(N)c1ccc(COc2ccc3c(c2)CCC(CC(=O)O)O3)cc1 (racemic) [Example 46, rac-(6-(4-(Aminoiminomethyl)phenylmethoxy)-3,4-dihydro-2H-1-benzopyran-2-yl)acetic Acid Trifluoroacetate] | 0.0033 µM | 2.5 µM
13 | CCOC(=O)CC1CCc2cc(NC(=O)c3ccc(C(=N)N)cc3)ccc2O1 (racemic) [Example 47, Hydrochloride] | 0.77 µM | 0.24 µM
14 | N=C(N)c1ccc(C(=O)Nc2ccc3c(c2)CCC(CC(=O)O)O3)cc1 (racemic) [Example 48, rac-(6-(N-(4-(Aminoiminomethyl)benzoyl)amino)-3,4-dihydro-2H-1-benzopyran-2-yl)acetic Acid] | 0.004 µM | 0.066 µM
